Experimental data: the NIST ThermoML archive (doi:10.1016/j.jct.2012.11.002)
Numbers after ± are expanded uncertainties.

Settings: Liquid, Vibrating tube method

CCCCOC(=O)C(C)O (stereo not given) [butyl 2-hydroxypropanoate]
mass density [kg/m3]
Settings	100 kPa	2500 kPa	5000 kPa	7500 kPa	10000 kPa	20000 kPa	30000 kPa	40000 kPa	50000 kPa	60000 kPa
283.15 K	992.75 ± 0.83	994.4 ± 0.83	996.14 ± 0.83	997.77 ± 0.84	999.41 ± 0.84	1005.87 ± 0.85	1011.69 ± 0.87	1017.42 ± 0.9	1022.85 ± 0.93	1027.71 ± 0.96
288.15 K	987.86 ± 0.82	989.52 ± 0.83	991.32 ± 0.83	993.09 ± 0.83	994.7 ± 0.83	1001.18 ± 0.84	1007.12 ± 0.86	1012.83 ± 0.88	1018.14 ± 0.91	1023.26 ± 0.94
293.15 K	982.96 ± 0.82	984.69 ± 0.82	986.5 ± 0.82	988.29 ± 0.83	990.02 ± 0.83	996.69 ± 0.84	1002.96 ± 0.85	1008.73 ± 0.87	1014.33 ± 0.89	1019.37 ± 0.92
298.15 K	977.96 ± 0.81	979.83 ± 0.82	981.74 ± 0.82	983.49 ± 0.82	985.26 ± 0.83	992.04 ± 0.83	998.37 ± 0.84	1004.29 ± 0.85	1009.82 ± 0.88	1015.17 ± 0.9
303.15 K	973.09 ± 0.81	974.98 ± 0.81	976.81 ± 0.81	978.72 ± 0.82	980.54 ± 0.82	987.67 ± 0.83	993.96 ± 0.84	1000.06 ± 0.84	1005.69 ± 0.86	1011.27 ± 0.89
308.15 K	967.74 ± 0.8	970.01 ± 0.8	971.95 ± 0.81	973.85 ± 0.81	975.59 ± 0.82	982.84 ± 0.83	989.43 ± 0.84	995.62 ± 0.84	1001.41 ± 0.84	1007.05 ± 0.87
313.15 K	963.05 ± 0.79	965.11 ± 0.8	967.03 ± 0.8	969.06 ± 0.81	970.96 ± 0.81	978.27 ± 0.83	985.03 ± 0.84	991.43 ± 0.84	997.35 ± 0.84	1002.99 ± 0.85
318.15 K	957.98 ± 0.79	960.06 ± 0.79	962.11 ± 0.8	964.16 ± 0.81	966.04 ± 0.81	973.62 ± 0.83	980.42 ± 0.84	986.96 ± 0.84	993.12 ± 0.84	998.83 ± 0.84
323.15 K	952.44 ± 0.78	954.61 ± 0.79	956.73 ± 0.79	958.74 ± 0.8	960.79 ± 0.81	968.64 ± 0.82	975.86 ± 0.84	982.37 ± 0.84	988.47 ± 0.85	994.3 ± 0.84
328.15 K	947.31 ± 0.78	949.44 ± 0.78	951.63 ± 0.79	953.79 ± 0.8	955.86 ± 0.8	963.73 ± 0.82	971.08 ± 0.84	977.8 ± 0.85	984.21 ± 0.85	990.17 ± 0.85
333.15 K	942.28 ± 0.77	944.52 ± 0.78	946.72 ± 0.79	948.91 ± 0.79	951.02 ± 0.8	959.28 ± 0.82	966.7 ± 0.84	973.8 ± 0.85	980.2 ± 0.85	986.43 ± 0.85
338.15 K	937.09 ± 0.76	939.39 ± 0.77	941.78 ± 0.78	943.99 ± 0.79	946.05 ± 0.79	954.42 ± 0.82	962.07 ± 0.84	969.19 ± 0.85	975.64 ± 0.86	982.05 ± 0.86
